Measurements: patent US20230130103A1, “TARGETED PHARMACOLOGICAL THERAPEUTICS IN UVEAL MELANOMA” (Washington University, priority 2017, published 2023)
Starred links: 1 amine or outer side, 2 acyl side, 3 side chain; linkers in the order of their positions; H or OH if unused. Positions of bridges follow the written chain, without caps; N, C: chain ends. Non-standard residues stand in square brackets, D forms with d. Residues, ends and D or L forms follow the SMILES beside them. *: point of attachment. Leu(3R-OH,Nα-propionyl) = CCC(=O)N[C@H](C(=O)*)[C@H](O)C(C)C; X1 = CC(C)[C@@H](O[*:3])[C@H](N[*:1])C(=O)[*:2]; X2 = CC(C)[C@H](O[*:3])[C@@H](N[*:1])C(=O)[*:2]; NMeaThr = CN[C@H](C(=O)O)[C@H](C)O; dPhLac = O=C(O)[C@H](O)Cc1ccccc1; NMeA = CN[C@@H](C)C(=O)O; NMeDha = C=C(NC)C(=O)O

What was measured:
92.1 cells = test: Melanocytic re-differentiation (morphology, pigmentation, immunostaining); assay type: cell-based, Human
Experimental: FIG. 5A Morphological changes elicited by FR. UM cell lines were treated 3 d with FR and imaged by phase contrast microscopy. FR caused UM cells driven by constitutively active Gαq (92.1 and Mel202) to lose their characteristic spindle shaped and assume a stellate shape with multiple projections. FR had no effect on BRAF-driven UM cells (OCM-1A). FIG. 5B Melanocytic differentiation of FR-treated UM cells indicated by pigmentation. UM cell lines were treated 3 d with FR. Cells were pelleted and examined macroscopically. […] Scale bar=50 μm.
Gαq-mutant 92.1 UM cells were treated with FR or vehicle, and RNA was collected 1 and 3 d after treatment for RNA-Seq analysis. FIG. 7A Unsupervised principal component analysis identified FR treatment and time in culture as the two main separable factors contributing to changes in gene expression. […] FIG. 7D FR-repressed genes identified as targets of the polycomb repressive complex 2 by Geneset enrichment analysis. FIG. 7E The Ezh1/2 inhibitor GSK503 blocks the morphological differentiation elicited by FR. 92.1 UM cells were treated 7 d with GSK503 and 3 d with FR and then imaged by phase contrast microscopy. […] 92.1 cells were treated 7 d with GSK503 and 3 d with FR and pelleted. FIG. 7G PRC2 inhibition by GSK503.
Cell fixation was carried out by adding an equal volume of 2×fixative (PBS with 4% paraformaldehyde and 0.4% glutaraldehyde) to UM cells in RPMI growth medium. After 15 min at 37° C., cells were permeabilized with 0.1% Triton X-100 in PBS for 5 min, washed with PBS, and blocked with 2% fish gelatin (Sigma-Aldrich) in PBS. Primary and secondary antibodies were diluted in 2% fish gelatin in PBS. Primary antibodies included mouse monoclonal anti-pre-melanosomal protein (One World Lab, San Diego, Calif.), rabbit polyclonal anti-tyrosinase (One World Lab), rabbit polyclonal anti-dopachrome tautomerase (One World Lab), rabbit polyclonal anti-S100 (DakoCytomation, Denmark), and mouse monoclonal anti-BrdU (Life Technologies). Secondary antibodies were Alexa-fluor conjugates (Life Technologies), and the mounting agent was ProLong Gold (Life Technologies). Cell morphology was assessed by phase contrast imaging with an inverted microscope (Olympus IX72) using a 10×objective.

OCM-1A cells = test: YAP-driven transcriptional reporter; assay type: cell-based, Human; conditions: FIG. 6B
Experimental: Expression data from two experimental replicates are mean-centered; the color gradient corresponds to difference in log 2 ratio of expression from the mean, such that 0.5 versus −0.5 is a total difference of 2-fold in unlogged expression.
Assays of transcriptional reporters driven by YAP or Gα subunits were performed as described (42, 43). YAP- or Ga-driven firefly luciferase activity was normalized to Renilla luciferase expressed from a constitutive promoter.

[1] = molecular target: T1, constitutively active Gα13 with the RGS domain of LARG (Homo sapiens, UniProt Q14344, Q226L); test: Split luciferase complementation, Gα interaction with RGS domain of LARG; assay type: cell-based; conditions: FIG. 1C
T1 construct: expressed in transfected cells; host or cells: HEK-293
T1 sequence (Q14344 1-377 Q226L): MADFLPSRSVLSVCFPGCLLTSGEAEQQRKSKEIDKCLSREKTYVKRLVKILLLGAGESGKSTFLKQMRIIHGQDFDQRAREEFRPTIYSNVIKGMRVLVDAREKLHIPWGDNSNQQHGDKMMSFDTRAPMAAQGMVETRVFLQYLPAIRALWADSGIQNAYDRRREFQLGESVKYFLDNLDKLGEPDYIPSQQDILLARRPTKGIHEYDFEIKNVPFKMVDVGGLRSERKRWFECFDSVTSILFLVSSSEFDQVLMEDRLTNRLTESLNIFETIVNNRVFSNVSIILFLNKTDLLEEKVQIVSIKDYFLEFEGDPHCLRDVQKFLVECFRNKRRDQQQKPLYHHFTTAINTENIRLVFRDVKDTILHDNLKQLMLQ
Excerpt: (§1) (FIG. 1A-1C) depicts the effect of FR on the activity state of Gα subunits as determined by interaction with Gβγ or RGS domains in split luciferase complementation assays. FIG. 1A Effect of FR on interaction of Gβγ2 with the indicated wild type (WT) or mutant constitutively active (Q/L) forms of Gα (q) or Gα13 (13). * p<0.01; ** p<0.05. FIG. 1B Potency of FR as a driver of interaction of Gβγ2 with wild type or mutant constitutively active Gαq. FIG. 1C Potency of FR as inhibitor of interaction of RGS2 with mutant constitutively active (Q/L) Gαq, or interaction of the RGS domain of LARG (LARG-RGS) with mutant constitutively active Gα13. FIG. 1D Potency of FR as inhibitor of signal transduction by constitutively active Gαq or Gα13 detected with an SRE(L) promoter-driven transcriptional reporter. Constitutively active Gαq (Q/L), constitutively active Gαq bearing the indicated FR binding site mutations, and constitutively Gα13 (Q/L) were studied.
(§2) To detect protein-protein interactions, a split luciferase complementation assays was used (23), as employed to study activation state-dependent interaction between Gα subunits and cognate binding partners (24).
Split luciferase assays were performed as described (24). […]

[2] = molecular target: T2, constitutively active Gα13 with Gβγ2 (Homo sapiens, UniProt Q14344, Q226L); test: Split luciferase complementation, Gα interaction with Gβγ2; assay type: cell-based; conditions: FIG. 1A
T2 construct: expressed in transfected cells; host or cells: HEK-293
T2 sequence (Q14344 1-377 Q226L): T1 sequence (Q14344 1-377 Q226L)
Excerpt: as §1, §2
(§3) Split luciferase assays were performed as described (24). The N-terminal portion of click beetle green luciferase (CBGN) was inserted into the αB-αC loop within the helical domain of wild type (WT) and constitutively active (Q/L) mutant forms of Gα and Gα13. Insertion of foreign proteins at this site preserves Gαfunction (40). The C-terminal region of click beetle green luciferase (CBGC) was fused to the N-termini of G131 (which was co-expressed with untagged Gγ2), RGS2, and the RGS domain of LARG, which interacts with Gal 3 only in the active GTP-bound state (41). HEK-293 cells transiently transfected with various combinations of tagged proteins were treated 18 h with vehicle(DMSO) or FR and luciferase assays were performed to measure reconstituted luciferase activity.

[3] = molecular target: T3, wild type Gαq interacting with Gβγ2 (Homo sapiens, UniProt P50148); test: as above; assay type: cell-based; conditions: HEK-293 cells, 18 h, FIG. 1B, read-out: EC50, increase of split luciferase complementation
T3 construct: expressed in transfected cells; host or cells: HEK-293
T3 sequence (P50148 whole entry): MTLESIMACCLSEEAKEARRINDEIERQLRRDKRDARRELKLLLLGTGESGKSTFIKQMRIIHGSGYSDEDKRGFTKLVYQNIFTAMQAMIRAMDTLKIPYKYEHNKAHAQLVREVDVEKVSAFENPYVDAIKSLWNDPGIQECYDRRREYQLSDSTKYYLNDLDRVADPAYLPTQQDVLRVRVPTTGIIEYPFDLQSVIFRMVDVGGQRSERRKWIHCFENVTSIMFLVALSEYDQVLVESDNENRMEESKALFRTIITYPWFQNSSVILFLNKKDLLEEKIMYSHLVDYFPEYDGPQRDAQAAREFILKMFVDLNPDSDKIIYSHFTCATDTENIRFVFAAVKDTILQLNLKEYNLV
T3 sequence (P59768 2-68, further chain): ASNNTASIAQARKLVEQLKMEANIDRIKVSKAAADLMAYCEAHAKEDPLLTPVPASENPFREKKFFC
T3 sequence (P62873 whole entry, further chain): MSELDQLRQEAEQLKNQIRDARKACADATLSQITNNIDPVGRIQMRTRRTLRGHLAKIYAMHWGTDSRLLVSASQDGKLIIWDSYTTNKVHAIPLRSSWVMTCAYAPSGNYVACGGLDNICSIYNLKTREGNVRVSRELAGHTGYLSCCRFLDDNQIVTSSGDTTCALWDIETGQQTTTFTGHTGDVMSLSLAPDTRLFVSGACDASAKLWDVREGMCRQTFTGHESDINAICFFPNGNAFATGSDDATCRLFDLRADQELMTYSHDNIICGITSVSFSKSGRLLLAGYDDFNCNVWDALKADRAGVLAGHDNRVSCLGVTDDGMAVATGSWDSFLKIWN
Excerpt: as §1, §2, §3

wild type Gα13 with Gβγ2 = molecular target: T4, wild type Gα13 with Gβγ2 (Homo sapiens, UniProt Q14344); test: as above; assay type: cell-based; conditions: FIG. 1A
T4 construct: expressed in transfected cells; host or cells: HEK-293
T4 sequence (P59768 2-68): as the sequence (P59768 2-68, further chain) above
T4 sequence (Q14344 whole entry): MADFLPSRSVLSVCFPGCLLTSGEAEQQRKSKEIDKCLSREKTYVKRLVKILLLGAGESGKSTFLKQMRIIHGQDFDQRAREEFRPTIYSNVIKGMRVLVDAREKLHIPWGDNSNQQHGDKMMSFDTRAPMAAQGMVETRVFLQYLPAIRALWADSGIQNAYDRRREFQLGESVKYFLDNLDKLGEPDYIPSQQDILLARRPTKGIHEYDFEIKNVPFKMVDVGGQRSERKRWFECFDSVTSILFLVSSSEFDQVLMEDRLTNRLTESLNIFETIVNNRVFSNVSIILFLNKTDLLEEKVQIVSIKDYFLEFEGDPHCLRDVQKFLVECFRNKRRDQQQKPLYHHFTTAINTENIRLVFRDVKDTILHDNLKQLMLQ
T4 sequence (P62873 whole entry, further chain): as the sequence (P62873 whole entry, further chain) above
Excerpt: as §1, §2, §3

C=C1C(=O)N[C@@H](C)C(=O)N(C)[C@@H](C)C(=O)N[C@H]([C@@H](OC(=O)[C@@H](NC(=O)CC)[C@H](O)C(C)C)C(C)C)C(=O)N(C)[C@@H]([C@H](C)OC)C(=O)O[C@H](C(C)C)[C@H](NC(C)=O)C(=O)O[C@H](Cc2ccccc2)C(=O)N1C [FR, [(1S)-1-[(3S,6R,9S,12S,18R,21S,22R)-21-acetamido-18-benzyl-3-[(1S)-1-methoxyethyl]-4,9,10,12,16-pentamethyl-15-methylidene-2,5,8,11,14,17,20-heptaoxo-22-propan-2-yl-1,19-dioxa-4,7,10,13,16-pentazacyclodocos-6-yl]-2-methylpropyl] (2S,3R)-3-hydroxy-4-methyl-2-(propanoylamino)pentanoate] (Ac-[X1][dPhLac][NMeDha]A[NMeA][X2](Leu(3R-OH,Nα-propionyl))[NMeaThr](Me); ester 1-C)
cell morphology (phase contrast) (92.1 cells; 3 d FR, FIG. 5A): morphological changes indicative of re-differentiation | melanocytic pigmentation (92.1 cells; 3 d FR, FIG. 5B): strikingly increased | expression levels of TYR, DCT and PMEL (immunofluorescence) (92.1 cells; FIG. 5C): increased | effect on YAP-driven transcriptional reporter (OCM-1A cells): no effect | effect on interaction with the RGS domain of LARG [1]: lack of effect | effect on interaction with Gβγ2 [2]: lack of effect | EC50 [3]: 3 nM | effect on interaction with Gβγ2 (wild type Gα13 with Gβγ2): lack of effect
